Reference: PMC5395518, “Design, synthesis, and biological evaluation of the novel glycyrrhetinic acid-cinnamoyl hybrids as anti-tumor agents” (Chemistry Central Journal, 2016)

Assays:
HepG2 cells = assay: MTT cytotoxicity assay, HepG2; type: cell-based, human; details: 72 h, mean ± SD (n = 3)
From the text: (§1) HepG2 (human hepatocellular carcinoma), Hela (human cervical cancer), HT-29 (human colon carcinoma), MDCK (Madin–Darby canine kidney), H9C2 (rat myocardial cells) and HY926 were purchased from the Chinese Academy of Medical Sciences and Peking Union Medical College. All of these cell lines were maintained in RPMI-1640 (DMEM) supplemented with 10% (v/v) fetal bovine serum (FBS) and 1% (v/v) penicillin/streptomycin (Thermo Technologies, New York, NY, USA) under a humidified atmosphere containing 5% CO2 at 37 °C. To provide stock solutions which were used to prepare various concentrations of treatment media, GA and hybrids were added a volume of DMSO.
(§2) The cytotoxicity of these compounds was evaluated on three human cancer cell lines (HepG2, HT-29, Hela) and three non-tumor cells lines (MDCK, HY926, H9C2) and MTT assay was performed to detect the cell proliferation. Simply, exponentially growing cells were cultured in 96-well plates (3 × 10^3 cells/well). And the plates were placed in a humidified atmosphere for 72 h at 37 °C with 5% CO2. After added MTT solution (5 mg/mL) 20 μL to each well, the plate was incubated for a further 4 h. Then the cell supernatant was removed and 150 μL DMSO was added. Finally, the absorbance was determined at wavelength of 490 nm with the ELISA. Wells without drugs were used to be blanks. The IC50 values were calculated using Logit-method. The following Eq. (1) was proposed to calculate the inhibitory rate of cell growth:1 %inhibition=1-Sample group OD/Control group OD×100%

Kunming mice = assay: Acute toxicity by gavage in Kunming mice; type: in vivo
From the text: Forty healthy Kunming mice (weight 18–22 g) of both sexes were purchased from Beijing Vital River Laboratory Animal Technology Company Limited (Beijing, China). The mice were divided into two groups matched the same weight and size, along with the standard in our previous studies. In briefly, 20 mice were selected for blank control group, and the other 20 mice were for the treated group. All experiments followed the guidelines of “Regulation for the Administration of Affairs Concerning Experimental Animals” (State Council of China, 1988). All animals were placed in cages, fed with standard rodent chow and water ad libitum under a 12-h light–dark cycle. Before the experiments, the mice were deprived of food for 12 h but provided water freely. Then the treated group of both sexes were administered a single dose of 8a (0.3 mL/10 g) via gavage twice a day, which was prepared in advance in bean oil solution with the maximum suspended dose (50 mg/mL). The total administration of 8a was 3 g/kg during 8 h. And the blank control group were given bean oil by oral administration only. The mice’s general behavior was continuously noted in the first hour, intermittently observed in the next 4 h, and thereafter over a period of 24 h. Observations of the signs for toxicity and deaths were last for 14 days. The mortality response and behavior of toxic effects of mice were recorded.

Hela cells [1] = assay: Giemsa staining on Hela cells; type: cell-based, human; details: 5, 10, 20 μM, 72 h, with increase of concentration
Method: Hela cells were seeded in 12-well plates (5 × 10^3 cells/well), and then they were cultured for 24 h at 37 °C with 5% CO2. After that each group was added 8a, making the final concentration of 0, 5, 10, 20 μM respectively. After 72 h, the cell supernatant was removed and the cells were cleaned with PBS twice, then kept in PBS/ethanol (1:1) for 2 min and fixed with cold ethanol for 10 min. After discarding ethanol, the cells were stained with Giemsa (Giemsa, Molecular Probes/Invitrogen Life Technologies, Carlsbad, CA, USA) stained for 5 min and washed with water. In the end, the cells were observed and photographed under inverted phase-contrast microscope at a magnification of 200×.

Hela cells [2] = assay: H33342 staining on Hela cells; type: cell-based, human; details: 5, 10, 20 μM, 72 h, with increase of concentration
Method: H33342 staining was used to confirm whether the characteristic nuclear changes were associated with 8a in this assay. Hela cells were cultured in 12-well plates (5 × 10^4 cells/well), which were placed in a humidified atmosphere for 24 h at 37 °C with 5% CO2. And then each group was added 8a, making the final concentration of 0, 5, 10, 20 μM respectively. After 72 h, cell culture medium was discarded and the cells were washed twice with PBS. H33342 staining was then performed for 2 min and washed with water. In the end, the cells were observed and photographed under inverted phase-contrast microscope at a magnification of 200×.

HT-29 cells = assay: MTT cytotoxicity assay, HT-29; type: cell-based, human; details: 72 h, mean ± SD (n = 3)
From the text: as §1, §2

H9C2 cells = assay: MTT cytotoxicity assay, H9C2 (non-tumor); type: cell-based, rat
From the text: as §1, §2

Hela cells [3] = assay: Annexin V-FITC/PI flow cytometric apoptosis assay; type: cell-based, human; details: 72 h, control 7.5%
Method: Hela cells were seeded in 12-well plates (5 × 10^4 cells/well), which were placed in a humidified atmosphere for 24 h at 37 °C with 5% CO2. After treated with different concentrations of 8a (5, 10, 20 μM) for 72 h, all cells were collected respectively with the right amount of trypsin (without EDTA) digestion. After added 1 mL cold PBS, the cells were gently suspended and centrifuged at 1000 rpm for 5 min. The harvested cells were suspended in 200 μL binding buffer which contained 10 μL Annexin V-FITC and PI. After avoided light reaction for 15 min, the cells were analyzed with a flow cytometry (BD, USA).

MDCK cells = assay: MTT cytotoxicity assay, MDCK (non-tumor); type: cell-based, canine
From the text: as §1, §2

caspase-3 = assay: Caspase-3 activity assay (Ac-DEVD-pNA cleavage) in Hela cells; type: cell-based, human; details: 5, 10, 20 μM, 48 h
Method: Hela cells were seeded in dishes at a density of 5 × 10^5 cell per dish and the dishes were kept at 37 °C with 5% CO2 for 24 h. On the next day, various concentration of 8a (0, 5, 10, 20 μM) were added to the cells and cultured for 48 h. Pre-cooled PBS were added twice to wash the cells. After removal of the medium, ice-cold cell lysis buffer was added, and the cells were further incubated in an ice bath for 15 min, which contribute to the protein acquisition. The caspase-3 activity kit (Beyotime Institute of Biotechnology, Beijing, China) was used to determine the activity of caspase-3. A total of 50 μL cell lysates, 40 μL reaction buffer and 10 μL caspase-3 substrate (Ac-DEVDpNA) (2 mM) were added to 96-well plates. After 30 min of incubation, absorbance was measured at 405 nm, and samples were quantified with ELISA.

Hela cells [4] = assay: MTT cytotoxicity assay, Hela; type: cell-based, human
From the text: as §1, §2

HY926 cells = assay: MTT cytotoxicity assay, HY926 (non-tumor); type: cell-based
From the text: as §1, §2

[5] = MTT, 72 h, mean ± SD (n = 3), non-tumor cells

SMILES: COc1ccc(/C=C/C(=O)OC2CCC3(C)C(CCC4(C)C3C(=O)C=C3C5CC(C)(C(=O)O)CCC5(C)CCC34C)C2(C)C)c(OC)c1OC (stereo not drawn) [Compound 8a, (2,3,4-Trimethoxy) cinnamoyl-3β-hydroxy-11-oxoolean-12-en-30-oic acid]
- IC50 (HepG2 cells): 21.5 ± 1.5 µM
- signs of toxicity or deaths (Kunming mice; maximum tolerated dose 3 g/kg oral (gavage), 2 weeks observation, mice): no signs of toxicity or deaths were observed
- LD50 (Kunming mice; oral administration in mice): exceeded 3.0 g/kg
- morphological changes by Giemsa staining (Hela cells [1]): cell loss, nuclei lysis, chromatin condensation and cytoplasmic shrinkage were aggravated
- nuclear changes by H33342 staining (Hela cells [2]): the nuclear fragmentation, the cytoplasmic shrinkage, and the shape of apoptotic cells became irregular
- IC50 (HT-29 cells): 15 ± 1.26 µM
- inhibition rate against H9C2 (H9C2 cells; 12.5 μM): 3.56%
- IC50 (H9C2 cells; [5]): > 50 µM
- apoptosis ratio (Hela cells [3]; 5 μM): 15.7%
- apoptosis ratio (Hela cells [3]; 10 μM): 27.7%
- apoptosis ratio (Hela cells [3]; 20 μM): 60%
- inhibition rate against MDCK (MDCK cells; 12.5 μM): 38.56%
- IC50 (MDCK cells; [5]): 31.8 ± 2.79 µM
- caspase-3 activities in Hela cells (caspase-3): enhanced in a concentration-dependent manner
- inhibition rate against Hela (Hela cells [4]; 12.5 μM): 59.20%
- IC50 (Hela cells [4]; MTT, 72 h, mean ± SD (n = 3)): 8.54 ± 1.44 µM
- inhibition rate against HY926 (HY926 cells; 12.5 μM): 20.20%
- IC50 (HY926 cells; [5]): 27.7 ± 1.39 µM
